*1 amine or outer side, *2 acyl side, *3 side chain or, on linkers, in order; H or OH if unused. Where a SMILES comes first, the peptide text is derived from it. Bridges are numbered along the chain shown (N, C = ends). [ ]: non-standard residue; d: D form. The star is where a group is joined. hPhe(3-Cl-4-CF3) = N[C@@H](CCc1ccc(C(F)(F)F)c(Cl)c1)C(=O)O; NPrPhe(4-CF3) = CCCN[C@@H](Cc1ccc(C(F)(F)F)cc1)C(=O)O; NEtPhe(4-CF3) = CCN[C@@H](Cc1ccc(C(F)(F)F)cc1)C(=O)O; X9 = CCCN([C@@H](Cc1ccc(F)cc1)C(=O)[*:2])[*:1]; X43 = CCCN([C@@H](Cc1ccccc1)C(=O)[*:2])[*:1]; NEtPhe(4-F) = CCN[C@@H](Cc1ccc(F)cc1)C(=O)O; NMePhe(4-F) = CN[C@@H](Cc1ccc(F)cc1)C(=O)O; NMeGly(cPent) = CN[C@H](C(=O)O)C1CCCC1; Pro(4,4-F2) = O=C(O)[C@@H]1CC(F)(F)CN1; NEtPhe = CCN[C@@H](Cc1ccccc1)C(=O)O; NMeD = CN[C@@H](CC(=O)O)C(=O)O; NMeL = CN[C@@H](CC(C)C)C(=O)O; Morpholide = C1CN(*)CCO1; NMeA = CN[C@@H](C)C(=O)O; Ac5c = NC1(C(=O)O)CCCC1; Aze = O=C(O)[C@@H]1CCN1; Ac4c = NC1(C(=O)O)CCC1; Ac3c = NC1(C(=O)O)CC1; Sar = CNCC(=O)O
Columns and labels:
[1] = molecular target: GDP-bound KRAS wild-type protein (Homo sapiens, UniProt P01116); experiment: Binding to KRAS by surface plasmon resonance (SPR), Single Cycle Kinetics; conditions: SPR Single Cycle Kinetics, GDP-bound KRAS wild-type protein, 1:1 binding model; read-out: KRAS KD
Sequence of GDP-bound KRAS wild-type protein (P01116 whole entry): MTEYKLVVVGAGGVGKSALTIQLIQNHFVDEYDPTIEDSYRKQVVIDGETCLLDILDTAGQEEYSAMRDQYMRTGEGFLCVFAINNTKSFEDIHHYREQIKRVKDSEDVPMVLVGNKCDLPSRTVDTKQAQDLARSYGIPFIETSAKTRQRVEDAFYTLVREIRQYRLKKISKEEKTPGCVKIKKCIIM

[2] = molecular target: GDP-bound NRAS wild-type protein (Homo sapiens, UniProt P01111); experiment: Binding to NRAS by surface plasmon resonance (SPR), Single Cycle Kinetics; conditions: SPR, GDP-bound NRAS wild-type protein vs GDP-bound KRAS wild-type protein
Sequence of GDP-bound NRAS wild-type protein (P01111 whole entry): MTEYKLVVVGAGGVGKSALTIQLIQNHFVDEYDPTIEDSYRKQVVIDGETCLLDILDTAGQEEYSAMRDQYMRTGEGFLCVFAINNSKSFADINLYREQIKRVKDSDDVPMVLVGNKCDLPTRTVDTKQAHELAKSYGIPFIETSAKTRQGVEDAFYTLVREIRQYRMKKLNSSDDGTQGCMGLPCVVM

[3] = molecular target: GDP-bound HRAS wild-type protein (Homo sapiens, UniProt P01112); experiment: Binding to HRAS by surface plasmon resonance (SPR), Single Cycle Kinetics; conditions: SPR, GDP-bound HRAS wild-type protein vs GDP-bound KRAS wild-type protein
Sequence of GDP-bound HRAS wild-type protein (P01112 whole entry): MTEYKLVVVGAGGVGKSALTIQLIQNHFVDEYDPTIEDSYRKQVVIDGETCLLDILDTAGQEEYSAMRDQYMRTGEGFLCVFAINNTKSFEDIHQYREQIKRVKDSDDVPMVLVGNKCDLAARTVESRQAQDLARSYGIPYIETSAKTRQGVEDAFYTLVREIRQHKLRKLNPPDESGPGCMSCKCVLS

Compound | Kd [1] [nM] | NRAS/KRAS (ratio of KD value for NRAS to KD value for KRAS) [2] | HRAS/KRAS (ratio of KD value for HRAS to KD value for KRAS) [3]
CCCN1C(=O)[C@@H]2CCN2C(=O)[C@H](C)N(C)C(=O)[C@H]([C@@H](C)CC)NC(=O)[C@H](CC(C)C)N(C)C(=O)C[C@@H](C(=O)N2CCOCC2)N(C)C(=O)[C@H](C2CCCC2)N(C)C(=O)C2(CCC2)NC(=O)[C@@H]2CC(F)(F)CN2C(=O)[C@H](CCc2ccc(C(F)(F)F)c(Cl)c2)NC(=O)CN(C)C(=O)[C@@H]1Cc1ccc(C(F)(F)F)cc1 [PP0208] ([NMeL]I[NMeA][Aze][NPrPhe(4-CF3)][Sar][hPhe(3-Cl-4-CF3)][Pro(4,4-F2)][Ac4c][NMeGly(cPent)][NMeD]-Morpholide; lactam N-11) | 0.26 | C (A compound having a KD ratio of 0.1 or more and less than 3 is denoted as C) | C (A compound having a KD ratio of 0.1 or more and less than 3 is denoted as C)
CC[C@H](C)[C@@H]1NC(=O)[C@H](CC(C)C)N(C)C(=O)C[C@@H](C(=O)N2CCOCC2)N(C)C(=O)[C@H](C2CCCC2)N(C)C(=O)C2(CCCC2)NC(=O)[C@@H]2CCCN2C(=O)[C@H](CCc2ccc(C(F)(F)F)c(Cl)c2)NC(=O)CN(C)C(=O)[C@H](Cc2ccccc2)N(CC)C(=O)CN(C)C(=O)CN(C)C1=O [PP0210] ([NMeL]I[Sar][Sar][NEtPhe][Sar][hPhe(3-Cl-4-CF3)]P[Ac5c][NMeGly(cPent)][NMeD]-Morpholide; lactam N-11) | 0.52 | C (A compound having a KD ratio of 0.1 or more and less than 3 is denoted as C) | C (A compound having a KD ratio of 0.1 or more and less than 3 is denoted as C)
CCCN1C(=O)CN(C)C(=O)CN(C)C(=O)[C@H]([C@@H](C)CC)NC(=O)[C@H](CC(C)C)N(C)C(=O)C[C@@H](C(=O)N2CCOCC2)N(C)C(=O)[C@H](C2CCCC2)N(C)C(=O)C2(CCCC2)NC(=O)[C@@H]2CCCN2C(=O)[C@H](CCc2ccc(C(F)(F)F)c(Cl)c2)NC(=O)CN(C)C(=O)[C@@H]1Cc1ccccc1 [PP0211] ([NMeL]I[Sar][Sar][X43][Sar][hPhe(3-Cl-4-CF3)]P[Ac5c][NMeGly(cPent)][NMeD]-Morpholide; lactam N-11) | 0.27 | B (a compound having 3 or more and less than 10 is denoted as B) | C (A compound having a KD ratio of 0.1 or more and less than 3 is denoted as C)
CC[C@H](C)[C@@H]1NC(=O)[C@H](CC(C)C)N(C)C(=O)C[C@@H](C(=O)N2CCOCC2)N(C)C(=O)[C@H](C2CCCC2)N(C)C(=O)C2(CCCC2)NC(=O)[C@@H]2CCCN2C(=O)[C@H](CCc2ccc(C(F)(F)F)c(Cl)c2)NC(=O)CN(C)C(=O)[C@H](Cc2ccc(F)cc2)N(C)C(=O)CN(C)C(=O)CN(C)C1=O [PP0212] ([NMeL]I[Sar][Sar][NMePhe(4-F)][Sar][hPhe(3-Cl-4-CF3)]P[Ac5c][NMeGly(cPent)][NMeD]-Morpholide; lactam N-11) | 0.098 | C (A compound having a KD ratio of 0.1 or more and less than 3 is denoted as C) | C (A compound having a KD ratio of 0.1 or more and less than 3 is denoted as C)
CC[C@H](C)[C@@H]1NC(=O)[C@H](CC(C)C)N(C)C(=O)C[C@@H](C(=O)N2CCOCC2)N(C)C(=O)[C@H](C2CCCC2)N(C)C(=O)C2(CCCC2)NC(=O)[C@@H]2CCCN2C(=O)[C@H](CCc2ccc(C(F)(F)F)c(Cl)c2)NC(=O)CN(C)C(=O)[C@H](Cc2ccc(F)cc2)N(CC)C(=O)CN(C)C(=O)CN(C)C1=O [PP0213] ([NMeL]I[Sar][Sar][NEtPhe(4-F)][Sar][hPhe(3-Cl-4-CF3)]P[Ac5c][NMeGly(cPent)][NMeD]-Morpholide; lactam N-11) | 0.25 | C (A compound having a KD ratio of 0.1 or more and less than 3 is denoted as C) | C (A compound having a KD ratio of 0.1 or more and less than 3 is denoted as C)
CCCN1C(=O)CN(C)C(=O)CN(C)C(=O)[C@H]([C@@H](C)CC)NC(=O)[C@H](CC(C)C)N(C)C(=O)C[C@@H](C(=O)N2CCOCC2)N(C)C(=O)[C@H](C2CCCC2)N(C)C(=O)C2(CCCC2)NC(=O)[C@@H]2CCCN2C(=O)[C@H](CCc2ccc(C(F)(F)F)c(Cl)c2)NC(=O)CN(C)C(=O)[C@@H]1Cc1ccc(F)cc1 [PP0214] ([NMeL]I[Sar][Sar][X9][Sar][hPhe(3-Cl-4-CF3)]P[Ac5c][NMeGly(cPent)][NMeD]-Morpholide; lactam N-11) | 0.13 | B (a compound having 3 or more and less than 10 is denoted as B) | C (A compound having a KD ratio of 0.1 or more and less than 3 is denoted as C)
CC[C@H](C)[C@@H]1NC(=O)[C@H](CC(C)C)N(C)C(=O)C[C@@H](C(=O)N2CCOCC2)N(C)C(=O)[C@H](C2CCCC2)N(C)C(=O)C2(CCCC2)NC(=O)[C@@H]2CCCN2C(=O)[C@H](CCc2ccc(C(F)(F)F)c(Cl)c2)NC(=O)CN(C)C(=O)[C@H](Cc2ccccc2)N(CC)C(=O)[C@@H]2CCN2C(=O)[C@H](C)N(C)C1=O [PP0215] ([NMeL]I[NMeA][Aze][NEtPhe][Sar][hPhe(3-Cl-4-CF3)]P[Ac5c][NMeGly(cPent)][NMeD]-Morpholide; lactam N-11) | 0.41 | C (A compound having a KD ratio of 0.1 or more and less than 3 is denoted as C) | C (A compound having a KD ratio of 0.1 or more and less than 3 is denoted as C)
CCCN1C(=O)[C@@H]2CCN2C(=O)[C@H](C)N(C)C(=O)[C@H]([C@@H](C)CC)NC(=O)[C@H](CC(C)C)N(C)C(=O)C[C@@H](C(=O)N2CCOCC2)N(C)C(=O)[C@H](C2CCCC2)N(C)C(=O)C2(CCCC2)NC(=O)[C@@H]2CCCN2C(=O)[C@H](CCc2ccc(C(F)(F)F)c(Cl)c2)NC(=O)CN(C)C(=O)[C@@H]1Cc1ccccc1 [PP0216] ([NMeL]I[NMeA][Aze][X43][Sar][hPhe(3-Cl-4-CF3)]P[Ac5c][NMeGly(cPent)][NMeD]-Morpholide; lactam N-11) | 0.28 | C (A compound having a KD ratio of 0.1 or more and less than 3 is denoted as C) | B (a compound having 3 or more and less than 10 is denoted as B)
CC[C@H](C)[C@@H]1NC(=O)[C@H](CC(C)C)N(C)C(=O)C[C@@H](C(=O)N2CCOCC2)N(C)C(=O)[C@H](C2CCCC2)N(C)C(=O)C2(CCCC2)NC(=O)[C@@H]2CCCN2C(=O)[C@H](CCc2ccc(C(F)(F)F)c(Cl)c2)NC(=O)CN(C)C(=O)[C@H](Cc2ccc(F)cc2)N(C)C(=O)[C@@H]2CCN2C(=O)[C@H](C)N(C)C1=O [PP0217] ([NMeL]I[NMeA][Aze][NMePhe(4-F)][Sar][hPhe(3-Cl-4-CF3)]P[Ac5c][NMeGly(cPent)][NMeD]-Morpholide; lactam N-11) | 0.18 | C (A compound having a KD ratio of 0.1 or more and less than 3 is denoted as C) | C (A compound having a KD ratio of 0.1 or more and less than 3 is denoted as C)
CC[C@H](C)[C@@H]1NC(=O)[C@H](CC(C)C)N(C)C(=O)C[C@@H](C(=O)N2CCOCC2)N(C)C(=O)[C@H](C2CCCC2)N(C)C(=O)C2(CCCC2)NC(=O)[C@@H]2CCCN2C(=O)[C@H](CCc2ccc(C(F)(F)F)c(Cl)c2)NC(=O)CN(C)C(=O)[C@H](Cc2ccc(F)cc2)N(CC)C(=O)[C@@H]2CCN2C(=O)[C@H](C)N(C)C1=O [PP0218] ([NMeL]I[NMeA][Aze][NEtPhe(4-F)][Sar][hPhe(3-Cl-4-CF3)]P[Ac5c][NMeGly(cPent)][NMeD]-Morpholide; lactam N-11) | 0.2 | C (A compound having a KD ratio of 0.1 or more and less than 3 is denoted as C) | C (A compound having a KD ratio of 0.1 or more and less than 3 is denoted as C)
CCCN1C(=O)[C@@H]2CCN2C(=O)[C@H](C)N(C)C(=O)[C@H]([C@@H](C)CC)NC(=O)[C@H](CC(C)C)N(C)C(=O)C[C@@H](C(=O)N2CCOCC2)N(C)C(=O)[C@H](C2CCCC2)N(C)C(=O)C2(CCCC2)NC(=O)[C@@H]2CCCN2C(=O)[C@H](CCc2ccc(C(F)(F)F)c(Cl)c2)NC(=O)CN(C)C(=O)[C@@H]1Cc1ccc(F)cc1 [PP0219] ([NMeL]I[NMeA][Aze][X9][Sar][hPhe(3-Cl-4-CF3)]P[Ac5c][NMeGly(cPent)][NMeD]-Morpholide; lactam N-11) | 0.13 | C (A compound having a KD ratio of 0.1 or more and less than 3 is denoted as C) | B (a compound having 3 or more and less than 10 is denoted as B)
CC[C@H](C)[C@@H]1NC(=O)[C@H](CC(C)C)N(C)C(=O)C[C@@H](C(=O)N2CCOCC2)N(C)C(=O)[C@H](C2CCCC2)N(C)C(=O)C2(CC2)NC(=O)[C@@H]2CCCN2C(=O)[C@H](CCc2ccc(C(F)(F)F)c(Cl)c2)NC(=O)CN(C)C(=O)[C@H](Cc2ccc(C(F)(F)F)cc2)N(CC)C(=O)[C@@H]2CCN2C(=O)[C@H](C)N(C)C1=O [PP0220] ([NMeL]I[NMeA][Aze][NEtPhe(4-CF3)][Sar][hPhe(3-Cl-4-CF3)]P[Ac3c][NMeGly(cPent)][NMeD]-Morpholide; lactam N-11) | 0.35 | C (A compound having a KD ratio of 0.1 or more and less than 3 is denoted as C) | C (A compound having a KD ratio of 0.1 or more and less than 3 is denoted as C)

From US20240158446A1, “CYCLIC COMPOUND HAVING SELECTIVE INHIBITORY ACTION ON KRAS OVER HRAS AND NRAS” (CHUGAI SEIYAKU KABUSHIKI KAISHA, priority 2021, published 2024)
